Patent US12247019B2 (Centaurus Therapeutics, priority 2018, dated 2025)

Target: T1, Des1 (Homo sapiens, UniProt O15121)
T1 sequence (O15121 1-323): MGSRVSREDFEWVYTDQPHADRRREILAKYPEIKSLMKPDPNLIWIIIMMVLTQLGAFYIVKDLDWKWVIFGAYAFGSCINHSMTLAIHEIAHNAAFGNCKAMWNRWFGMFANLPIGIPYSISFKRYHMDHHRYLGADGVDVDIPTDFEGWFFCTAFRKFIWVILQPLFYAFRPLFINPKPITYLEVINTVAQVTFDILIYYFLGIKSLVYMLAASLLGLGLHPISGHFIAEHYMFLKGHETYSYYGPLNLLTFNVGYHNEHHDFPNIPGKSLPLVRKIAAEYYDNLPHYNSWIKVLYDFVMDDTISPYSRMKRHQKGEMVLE
Experiment: Jurkat T cell measurement of conversion of dihydroceramide to ceramide (Des1 activity, LC-MS/MS of NBD-C6-ceramide)
Type: cell-based
Parameters: endogenous in cells; host or cells: Jurkat clone E6-1
Settings: Jurkat clone E6-1 cells, 10 μM NBD-C6-dihydroceramide, 3 hours at 37° C.; for inhibition at 0.5 µM: 0.5 uM compound, read-out: Des1 % Inhib (0.5 uM); for IC50: read-out: Des1 IC50
Protocol: Jurkat T Cell Measurement of Conversion of Dihydroceramide to Ceramide
Jurkat clone E6-1 cells were grown and then seeded at 10^6 cells/mL in a 96-well plate (400 μL in each well. The cells were administered 100 μL of cell culture media containing 50-μM NBD-C6-dihydroceramide (Des1 substrate), affording a final concentration of substrate of 10 μM. The cells were incubated with substrate at 4° C. for 30 minutes. Following the incubation at 4° C., the cell suspension was centrifuged at 1200 rpm for 3 minutes, and the cell pellet is resuspended in 400 μL of fresh media containing various concentrations of either fenretinide (known Des1 inhibitor control compound) or test article. The final concentrations of control compound and test compounds were tested in a range from 0-10 μM. The cells and compounds were incubated at 37° C. for 3 hours. Following the 3-hour incubation, the plate was centrifuged at 2500 g for 3 minutes at 4° C., followed by collection and transfer of 200 μL of the supernatant to a new 96-well plate with 300 μL of methanol an containing appropriate internal standards for liquid chromatography/tandem mass spectroscopy (LC/MS/MS) analysis (internal standard: 500 nM labetalol and 100 nM alprazolam). The samples were vortexed for 2 minutes followed by centrifugation at 3,220 g for 20 minutes. Following centrifugation, 200 μL of the supernatant was transferred to a new 96-well plate for LC-MS/MS analysis to determine the amount of NBD-C6-ceramide (Des1 product) produced. The assay was typically performed in duplicate. A reduction of at least 30% compared to vehicle control (0 μM test article) is indicative of an active compound, and a reduction of 75% compared to vehicle control is preferred.

Row | SMILES | inhibition at 0.5 µM | IC50
1 | O=C(Nc1ccc(O)cn1)N1CCC(c2ccccc2)CC1 [Example 1, N-(5-Hydroxypyridin-2-yl)-4-phenylpiperidine-1-carboxamide] | 89.6% | 0.042 µM
2 | O=C(Nc1ccc(O)cn1)N1CCC(c2ccc(F)cc2)CC1 [Example 2, N-[5-[Hydroxy]pyridin-2-yl]-4-(4-fluorophenyl)piperidine-1-carboxamide] | 91.7% | 0.025 µM
3 | O=C(Nc1ccc(O)cn1)N1CCN(c2ccccc2)CC1 [Example 3, N-(5-Hydroxypyridin-2-yl)-4-phenylpiperazine-1-carboxamide] | 87.9% | 0.053 µM
4 | O=C(Nc1ccc(O)cn1)N1CCC(c2ccc(Cl)cc2)CC1 [Example 4, 4-(4-Chlorophenyl)-N-(5-hydroxypyridin-2-yl)piperidine-1-carboxamide] | 94.3% | 0.023 µM
5 | O=C(Nc1ccc(O)cn1)N1CCN(c2ccc(F)cc2)CC1 [Example 5, 4-(4-Fluorophenyl)-N-(5-hydroxypyridin-2-yl)piperazine-1-carboxamide] | 91.5% | 0.032 to 0.051 µM
6 | COc1ccc(C2CCN(C(=O)Nc3ccc(O)cn3)CC2)cc1 [Example 6, N-(5-Hydroxypyridin-2-yl)-4-(4-methoxyphenyl)piperidine-1-carboxamide] | 81.8% | 0.069 µM
7 | O=C(Nc1ccc(O)cn1)N1CCC(c2cccc(Cl)c2)CC1 [Example 7] | 94% | 0.026 µM
8 | O=C(Nc1ccc(O)cn1)N1CCC(Cc2ccccc2)CC1 [Example 8, 4-Benzyl-N-(5-hydroxypyridin-2-yl)piperidine-1-carboxamide] | 94.9% | 0.013 µM
9 | CC(C)C1CCN(C(=O)Nc2ccc(O)cn2)CC1 [Example 9, N-(5-Hydroxypyridin-2-yl)-4-(propan-2-yl)piperidine-1-carboxamide] | 93.8% | 0.017 µM
10 | O=C(Nc1ccc(O)cn1)N1CCCCC1 [Example 10, N-(5-Hydroxypyridin-2-yl)piperidine-1-carboxamide] | 15% | 
11 | O=C(Nc1ccc(O)cn1)N1CCCCCC1 [Example 11, N-(5-hydroxypyridin-2-yl)azepane-1-carboxamide] | 38.5% | 
12 | O=C(Nc1ccc(O)cn1)N1CCN(c2ccccc2F)CC1 [Example 12, 4-(2-fluorophenyl)-N-(5-hydroxypyridin-2-yl)piperazine-1-carboxamide] | 90.5% | 0.054 µM
13 | O=C(Nc1ccc(O)cn1)N1CCN(c2ccc(F)cc2F)CC1 [Example 13, 4-(2,4-difluorophenyl)-N-(5-hydroxypyridin-2-yl)piperazine-1-carboxamide] | 93% | 0.009 to 0.033 µM
14 | O=C(Nc1ccc(O)cn1)N1CCN(c2ccc(C(F)(F)F)cc2)CC1 [Example 14, N-(5-Hydroxypyridin-2-yl)-4-[4-(trifluoromethyl)phenyl]piperazine-1-carboxamide] | 95.9% | 0.003 µM
15 | COc1ccc(N2CCN(C(=O)Nc3ccc(O)cn3)CC2)cc1 [Example 15, N-(5-hydroxypyridin-2-yl)-4-(4-methoxyphenyl)piperazine-1-carboxamide] | 81.8% | 0.11 µM
16 | O=C(Nc1ccc(O)cn1)N1CCN(c2ncccn2)CC1 [Example 16, N-(5-hydroxypyridin-2-yl)-4-(pyrimidin-2-yl)piperazine-1-carboxamide] | 31.4% | 
17 | O=C(Nc1ccc(O)cn1)N1CCN(c2ccccn2)CC1 [Example 17, N-(5-hydroxypyridin-2-yl)-4-(pyridin-2-yl) piperazine-1-carboxamide] | 76.9% | 
18 | O=C(Nc1ccc(O)cn1)N1CCN(c2ccc(C(F)(F)F)cn2)CC1 [Example 18, N-(5-hydroxypyridin-2-yl)-4-[5-(trifluoromethyl)pyridin-2-yl]piperazine-1-carboxamide] | 96.6% | 0.004 µM
19 | O=C(Nc1ccc(O)cn1)N[C@H]1CC[C@H](c2ccccc2)CC1 [Example 19, 3-(5-hydroxypyridin-2-yl)-1-[(1r,4r)-4-phenylcyclohexyl]urea] | 76.7% | 

Row | SMILES | inhibition at 0.5 µM | IC50
20 | O=C(Nc1ccc(O)cn1)NC1CCOCC1 [Example 20, 3-(5-Hydroxypyridin-2-yl)-1-(oxan-4-yl)urea] | 19.6% | 
21 | O=C(Nc1ccc(O)cn1)NC1CCCCC1 [Example 21, 1-cyclohexyl-3-(5-hydroxypyridin-2-yl)urea] | 69.3% | 
22 | O=C(Nc1ccc(O)cn1)N1CCN(c2ccc(Cl)cn2)CC1 [Example 22, 4-(5-chloropyridin-2-yl)-N-(5-hydroxypyridin-2-yl)piperazine-1-carboxamide] |  | 0.014 µM
23 | O=C(Nc1ccc(O)cn1)N1CCN(c2ccc(Cl)cc2Cl)CC1 [Example 23, 4-(2,4-dichlorophenyl)-N-(5-hydroxypyridin-2-yl)piperazine-1-carboxamide] |  | 0.01 µM
24 | O=C(Nc1ccc(O)cn1)N1CCN(c2ccc(F)cn2)CC1 [Example 24, 4-(5-fluoropyridin-2-yl)-N-(5-hydroxypyridin-2-yl)piperazine-1-carboxamide] |  | 0.064 to 0.094 µM
25 | O=C(Nc1ccc(O)cn1)N1CCN(c2ccc(F)c(F)c2)CC1 [Example 25, 4-(3,4-difluorophenyl)-N-(5-hydroxypyridin-2-yl)piperazine-1-carboxamide] |  | 0.009 µM
26 | O=C(Nc1ccc(O)cn1)N1CCN(c2cc(F)cc(F)c2)CC1 [Example 26, 4-(3,5-difluorophenyl)-N-(5-hydroxypyridin-2-yl)piperazine-1-carboxamide] |  | 0.012 µM
27 | N#Cc1ccc(N2CCN(C(=O)Nc3ccc(O)cn3)CC2)cc1 [Example 27, 4-(4-cyanophenyl)-N-(5-hydroxypyridin-2-yl)piperazine-1-carboxamide] |  | 0.011 µM
28 | O=C(Nc1ccc(O)cc1)N1CCN(c2ccc(F)cc2F)CC1 [Example 28, 4-(2,4-difluorophenyl)-N-(4-hydroxyphenyl)piperazine-1-carboxamide] | 57.8% | 
29 | O=C(Nc1ccc(O)cc1)N1CCN(c2ccc(F)cc2)CC1 [Example 29, 4-(4-fluorophenyl)-N-(4-hydroxyphenyl)piperazine-1-carboxamide] | 58.6% | 
30 | O=C(Nc1ccc(O)cc1)N1CCN(c2ccc(C(F)(F)F)cc2)CC1 [Example 30, N-(4-hydroxyphenyl)-4-[4-(trifluoromethyl)phenyl]piperazine-1-carboxamide] | 89.7% | 0.15 µM
31 | O=C(Nc1ccc(O)cc1)N1CCN(c2ccc(C(F)(F)F)cn2)CC1 [Example 31, N-(4-hydroxyphenyl)-4-[5-(trifluoromethyl)pyridin-2-yl]piperazine-1-carboxamide] |  | 0.34 µM
32 | O=C(Nc1ccc(O)cn1)NC1CCN(c2ccccc2)CC1 [Example 32, 3-(5-hydroxypyridin-2-yl)-1-(1-phenylpiperidin-4-yl)urea] |  | 0.18 µM
33 | O=C(Nc1ccc(O)cn1)N1CCN(c2cc(C(F)(F)F)ccn2)CC1 [Example 33, N-(5-hydroxypyridin-2-yl)-4-[4-(trifluoromethyl)pyridin-2-yl]piperazine-1-carboxamide] | 93.1% | 0.007 µM
34 | N#Cc1ccc(N2CCN(C(=O)Nc3ccc(O)cn3)CC2)nc1 [Example 34, 4-(5-cyanopyridin-2-yl)-N-(5-hydroxypyridin-2-yl)piperazine-1-carboxamide] | 85.4% | 
35 | O=C(Nc1ccc(O)cn1)N1CCN(c2cccc(F)n2)CC1 [Example 35, 4-(6-fluoropyridin-2-yl)-N-(5-hydroxypyridin-2-yl)piperazine-1-carboxamide] | 91.3% | 0.003 µM
36 | O=C(Nc1ccc(O)cn1)N1CCN(c2cccc(C(F)(F)F)n2)CC1 [Example 36, N-(5-hydroxypyridin-2-yl)-4-[6-(trifluoromethyl)pyridin-2-yl]piperazine-1-carboxamide] | 94.9% | 0.023 µM
37 | O=C(Nc1ccc(O)cn1)N1CCN(Cc2ccccc2)CC1 [Example 37, 4-benzyl-N-(5-hydroxypyridin-2-yl)piperazine-1-carboxamide] | 80.7% | 
38 | O=C(Nc1ccc(O)cn1)N1CCN(Cc2ccc(F)cc2)CC1 [Example 38, 4-[(4-Fluorophenyl)methyl]-N-(5-hydroxypyridin-2-yl)piperazine-1-carboxamide] | 91.5% | 0.06 µM
